Measurements as given in patent US11440870B2, “Cannabidiolic acid esters compositions and uses thereof” (Yissum Research Development Company of the Hebrew …, priority 2017, dated 2022).

Legend:
[1] = tested on: anxiety-like responding in rats; test: Light-dark box emergence test after foot shock stress (anxiety-like responding); format: in vivo, male Sprague-Dawley rats; settings: for Time spent in the light box after foot shock (FS) stress vs No FS: 0.01 μg·kg−1 i.p., 45 min before 5 min test, 24 h after FS
Text: (§1) Animal procedures complied with the Canadian Council on Animal Care, and the protocols were approved by the Institutional Animal Care Committee at University of Guelph. Animal studies are reported in compliance with the ARRIVE guidelines (Kilkenny et al., 2010; McGrath and Lilley, 2015). A total of 200 näive male Sprague-Dawley rats, obtained from Charles River Laboratories (St Constant, Quebec), were used for all in vivo studies. Rats were individually housed (for acute nausea studies) or pair-housed [for anticipatory nausea and light-dark emergence studies] in home cages made of opaque white plastic (48×26×20 cm), containing bed-o-cob bedding from Harlan Laboratories, Inc. (Mississauga, Ontario), a brown paper towel, and Crinkl'Nest™ from The Andersons, Inc. (Maumee, Ohio). Additionally, in the home cage, rats were provided with a soft white paper container that was 14 cm long and 12 cm in diameter. All rats were subjected to an ambient temperature of 21° C. and a 12/12 h light-dark schedule (lights off at 07:00 h) and maintained on food (Highland Rat Chow [8640]) and water ad libitum. For the acute and anticipatory nausea studies, their body weights ranged from 263 to 329 g on the day of conditioning. For the light-dark emergence studies, their body weights ranged from 320 to 387 g on the day of test.
For the in vivo experiment 3, anxiolytic-like responding was evaluated using the light-dark emergence apparatus, which consisted of an opaque white plastic rectangular box that was divided into two compartments: a small (25 cm wide×20.5 cm long×20.5 cm high) enclosed dark box built of opaque black plastic with a door (8 cm wide×10 cm high) leading to a larger (39.5 cm long×25 cm wide) open lit box. The open lit box was illuminated by one lamp (with a 60 W bulb, 180 lux in the light chamber) positioned 115 cm above the center of the lit box. A video camera was mounted over the top of the light-dark box, and the video tapes were analyzed by the Ethovision software (Noldus Information Technology, Leesburg, Va., USA) for the duration of time spent in the light box for the 5 min test. For the foot shock (FS) session, the rats were placed in sound attenuating MED Associates fear conditioning chambers (St. Albans, Vt., USA). The 6 min FS session consisted of six 0.8 mA foot shocks delivered 1 min apart. Each 0.5 s shock was preceded by a 30 s auditory tone (90 Db, 5000 Hz) as described by Bluett et al. (2014).
The effect of CBDA and HU-580 on anxiety-like responding was evaluated using the light-dark box emergence test following either foot shock stress or no foot shock (No FS) stress. […]

[2] = tested on: contextually elicited conditioned gaping (anticipatory nausea) in rats; test: Anticipatory nausea: contextually elicited conditioned gaping in rats; format: in vivo, male Sprague-Dawley rats; settings: for Contextually elicited conditioned gaping compared to VEH controls: 45 min before test
Text: as §1
For in vivo experiment 2, contextually elicited conditioned gaping (a model of anticipatory nausea) was measured using a distinctive conditioning chamber made of opaque black Plexiglass (22.5×26×20 cm) with an opaque lid that sat on a table with a clear glass top. A mirror beneath the chamber at a 45° angle facilitated viewing of the ventral surface of the rat to observe orofacial responses. The conditioning chamber was in a dark room next to a 25 W light source. A video camera that was fire-wired into a computer was focused on the mirror to record each rat's orofacial reactions during the 5 min test trial. The video tapes were later scored using ‘The Observer’ software. To assess activity, an activity chamber made of white Plexiglas (60×25×25 cm) was used, illuminated by a red light found in a different room that the contextual chamber was used to create a different context from the AN chamber. The activity of each rat was captured by video camera and sent to the Ethovision software program (Noldus, Inc., NL) to measure distance (cm) travelled.
To compare the potential of HU-580 and CBDA to reduce anticipatory nausea, the contextually elicited conditioned gaping paradigm was used (e.g. Limebeer et al., 2010; Rock et al., 2014). Rats underwent four conditioning trials during which the distinctive context was paired with 127 mg·kg^−1 LiCl. On each trial, rats were injected with LiCl and then immediately placed in the conditioning chamber for 30 min. This procedure was repeated four times with a 48 h interval between conditioning trials. For the test trial, rats were randomly assigned to one of five treatment groups (n=6 per group): VEH, 0.1 μg·kg^−1 CBDA, 0.1 μg·kg^−1 HU-580, 0.01 μg·kg^−1 CBDA, […] HU-580. Pretreatments were injected 45 min before the rats were given an saline injection (20 mL·kg^−1 i.p.) and individually placed in the conditioning (contextual) chamber for 5 min, and orofacial responses were video recorded. To investigate the mechanism of action of HU-580, two additional groups of rats were administered 0.1 mg·kg^−1 WAY-VEH (n=8), 0.1 mg·kg^−1 WAY-0.1 μg·kg^−1 HU-580 (n=8). VEH or WAY100635 were administered 15 min before […] or VEH. The video tapes from the test trial were scored by an observer blind to the experimental conditions using ‘The Observer’ for the behaviors of gaping (large openings of the mouth and jaw, with lower incisors exposed). […]

| SMILES | Time spent in the light box after foot shock (FS) stress vs No FS [1] | Time spent in the light box after foot shock (FS) stress vs No FS, with 5-HT1A antagonist pretreatment ([1]; WAY100635 15 min before 0.01 μg·kg−1 HU-580 i.p., P=0.05) | Contextually elicited conditioned gaping compared to VEH controls ([2]; 0.01 μg·kg−1 i.p.) | Suppressive effect on anticipatory nausea after 5-HT1A antagonist pretreatment ([2]; 0.1 μg·kg−1 HU-580 i.p., WAY100635 0.1 mg·kg−1 15 min before) | Contextually elicited conditioned gaping compared to VEH controls ([2]; 0.1 μg·kg−1 i.p., P<0.05) | Dose as low as which contextually elicited conditioned gaping is suppressed ([2]; i.p., rats) |
| --- | --- | --- | --- | --- | --- | --- |
| C=C(C)[C@@H]1CCC(C)=C[C@H]1c1c(O)cc(CCCCC)c(C(=O)OC)c1O [HU-580, Cannabidiolic Acid Methyl Ester] | reversed the effect of FS | spent less time in the light box following FS stress than following No FS stress | gaping significantly less than VEH controls | blocked by pretreatment with WAY100635 | reduced conditioned gaping | 0.01 µg/kg |
| C=C(C)[C@@H]1CCC(C)=C[C@H]1c1c(O)cc(CCCCC)c(C(=O)O)c1O [CBDA, Cannabidiolic acid] | spent less time in the light box following FS stress than following No FS stress | – | but not CBDA, suppressed contextually elicited conditioned gaping | – | reduced conditioned gaping | – |
